The structures appear in SMILES notation.

The first assay relates to SF-539. In words: NCI in vitro growth inhibition, CNS SF-539. It counts as cell-based. Conditions: Homo sapiens, read-out: 50% Growth Inhibition (GI 50); SF-539, CNS; 48 h. How it is done: (§1) Inoculates were allowed a preincubation period of 24 h at 37° C. for stabilization.
Take `CC[C@@]1(O)C(=O)OCc2c1cc1n(c2=O)C(NO)c2cc3ccccc3nc2-1` (stereo partly shown) [Example 1, 5-Hydroxylaminocamptothecin]: the GI50 was determined as 1.2 µM.

Turning to `CC[C@@]1(O)C(=O)OCc2c1cc1n(c2=O)C(NO)c2cc3cc(O)ccc3nc2-1` (stereo partly shown) [Example 11, 10-Hydroxy-5-hydroxylaminocamptothecin], the GI50 is 3.16 µM.

For another assay, the system named is CAKI-1. In words: NCI in vitro growth inhibition, renal CAKI-1. It counts as cell-based. Particulars: Homo sapiens, read-out: 50% Growth Inhibition (GI 50); CAKI-1, renal; 48 h. How it is done: as §1
As for `CC[C@@]1(O)C(=O)OCc2c1cc1n(c2=O)C(NO)c2cc3cc(O)ccc3nc2-1` (stereo partly shown) [Example 11, 10-Hydroxy-5-hydroxylaminocamptothecin], the GI50 turned out to be 4.26 µM.

For another assay, the system named is HL 60. The experiment in a line: NCI in vitro growth inhibition, leukemia HL 60. The class given is cell-based. Conditions: Homo sapiens, read-out: 50% Growth Inhibition (GI 50); HL 60, leukemia; 48 h. On the procedure: as §1
Turning to `CC[C@@]1(O)C(=O)OCc2c1cc1n(c2=O)C(NO)c2cc3ccccc3nc2-1` (stereo partly shown) [Example 1, 5-Hydroxylaminocamptothecin], the GI50 was found to be 0.38 µM.

Turning to `CC[C@@]1(O)C(=O)OCc2c1cc1n(c2=O)C(NO)c2cc3cc(O)ccc3nc2-1` (stereo partly shown) [Example 11, 10-Hydroxy-5-hydroxylaminocamptothecin], the GI50 turned out to be 1.86 µM.

The test system of another assay is MCF-7. The experiment in a line: NCI in vitro growth inhibition, breast MCF-7. The class given is cell-based. Particulars: Homo sapiens, MCF7, read-out: 50% Growth Inhibition (GI 50); MCF-7, breast; 48 h. On the procedure: as §1
Turning to `CC[C@@]1(O)C(=O)OCc2c1cc1n(c2=O)C(NO)c2cc3ccccc3nc2-1` (stereo partly shown) [Example 1, 5-Hydroxylaminocamptothecin], the GI50 amounted to 0.34 µM.

Turning to `CC[C@@]1(O)C(=O)OCc2c1cc1n(c2=O)C(NO)c2cc3cc(O)ccc3nc2-1` (stereo partly shown) [Example 11, 10-Hydroxy-5-hydroxylaminocamptothecin], the GI50 was 4.07 µM.

For a further assay, the system named is H 23. In words: NCI in vitro growth inhibition, NSLC H 23. The class given is cell-based. Particulars: Homo sapiens, NCI-H23, read-out: 50% Growth Inhibition (GI 50); H 23, NSLC; 48 h. On the procedure: as §1
Consider `CC[C@@]1(O)C(=O)OCc2c1cc1n(c2=O)C(NO)c2cc3ccccc3nc2-1` (stereo partly shown) [Example 1, 5-Hydroxylaminocamptothecin], for which the GI50 was determined as 1.62 µM.

On to `CC[C@@]1(O)C(=O)OCc2c1cc1n(c2=O)C(NO)c2cc3cc(O)ccc3nc2-1` (stereo partly shown) [Example 11, 10-Hydroxy-5-hydroxylaminocamptothecin], for which the GI50 was 4.16 µM.

A further assay concerns HOP 62. In words: NCI in vitro growth inhibition, NSLC HOP 62. Particulars: Homo sapiens, read-out: 50% Growth Inhibition (GI 50); HOP 62, NSLC; 48 h. It counts as cell-based. How it is done:
as §1
For `CC[C@@]1(O)C(=O)OCc2c1cc1n(c2=O)C(NO)c2cc3ccccc3nc2-1` (stereo partly shown) [Example 1, 5-Hydroxylaminocamptothecin], the GI50 is 0.38 µM.

Regarding `CC[C@@]1(O)C(=O)OCc2c1cc1n(c2=O)C(NO)c2cc3cc(O)ccc3nc2-1` (stereo partly shown) [Example 11, 10-Hydroxy-5-hydroxylaminocamptothecin], the GI50 turned out to be 7.41 µM.

Another assay relates to SF 295. The experiment in a line: NCI in vitro growth inhibition, CNS SF 295. The class given is cell-based. Conditions: Homo sapiens, read-out: 50% Growth Inhibition (GI 50); SF 295, CNS; 48 h. On the procedure:
as §1
Consider `CC[C@@]1(O)C(=O)OCc2c1cc1n(c2=O)C(NO)c2cc3ccccc3nc2-1` (stereo partly shown) [Example 1, 5-Hydroxylaminocamptothecin], for which the GI50 turned out to be 0.25 µM.

For `CC[C@@]1(O)C(=O)OCc2c1cc1n(c2=O)C(NO)c2cc3cc(O)ccc3nc2-1` (stereo partly shown) [Example 11, 10-Hydroxy-5-hydroxylaminocamptothecin], the GI50 was found to be 4.89 µM.

In a further assay the test system is 786-O. In words: NCI in vitro growth inhibition, renal 786-O. The class given is cell-based. Conditions: Homo sapiens, 786-0, read-out: 50% Growth Inhibition (GI 50), 48 h. How it is done:
as §1
With `CC[C@@]1(O)C(=O)OCc2c1cc1n(c2=O)C(NO)c2cc3ccccc3nc2-1` (stereo partly shown) [Example 1, 5-Hydroxylaminocamptothecin], the GI50 stood at 0.56 µM.

For the molecule `CC[C@@]1(O)C(=O)OCc2c1cc1n(c2=O)C(NO)c2cc3cc(O)ccc3nc2-1` (stereo partly shown) [Example 11, 10-Hydroxy-5-hydroxylaminocamptothecin], the GI50 was determined as 2.69 µM.

The test system of a further assay is LOX IMVI. The experiment in a line: NCI in vitro growth inhibition, melanoma LOX IMVI. The class given is cell-based. Conditions: Homo sapiens, read-out: 50% Growth Inhibition (GI 50), 48 h. On the procedure: as §1
With `CC[C@@]1(O)C(=O)OCc2c1cc1n(c2=O)C(NO)c2cc3ccccc3nc2-1` (stereo partly shown) [Example 1, 5-Hydroxylaminocamptothecin], the GI50 was determined as 3.38 µM.

As to `CC[C@@]1(O)C(=O)OCc2c1cc1n(c2=O)C(NO)c2cc3cc(O)ccc3nc2-1` (stereo partly shown) [Example 11, 10-Hydroxy-5-hydroxylaminocamptothecin], the GI50 was 2.69 µM.

For another assay, the system named is UACC 62. The experiment in a line: NCI in vitro growth inhibition, melanoma UACC 62. It counts as cell-based. Particulars: Homo sapiens, read-out: 50% Growth Inhibition (GI 50); UACC 62, melanoma; 48 h. How it is done: as §1
With `CC[C@@]1(O)C(=O)OCc2c1cc1n(c2=O)C(NO)c2cc3ccccc3nc2-1` (stereo partly shown) [Example 1, 5-Hydroxylaminocamptothecin], the GI50 was 0.37 µM.

Consider `CC[C@@]1(O)C(=O)OCc2c1cc1n(c2=O)C(NO)c2cc3cc(O)ccc3nc2-1` (stereo partly shown) [Example 11, 10-Hydroxy-5-hydroxylaminocamptothecin], for which the GI50 is 4.16 µM.

In a further assay the test system is T 47D. The experiment in a line: NCI in vitro growth inhibition, breast T 47D. It counts as cell-based. Particulars: Homo sapiens, T47D, read-out: 50% Growth Inhibition (GI 50), 48 h. On the procedure:
as §1
For the molecule `CC[C@@]1(O)C(=O)OCc2c1cc1n(c2=O)C(NO)c2cc3ccccc3nc2-1` (stereo partly shown) [Example 1, 5-Hydroxylaminocamptothecin], the GI50 was determined as 0.2 µM.

Turning to `CC[C@@]1(O)C(=O)OCc2c1cc1n(c2=O)C(NO)c2cc3cc(O)ccc3nc2-1` (stereo partly shown) [Example 11, 10-Hydroxy-5-hydroxylaminocamptothecin], the GI50 worked out at 1.28 µM.

For another assay, the system named is SK MEL-5. The experiment in a line: NCI in vitro growth inhibition, melanoma SK MEL-5. The class given is cell-based. Conditions: Homo sapiens, read-out: 50% Growth Inhibition (GI 50); SK MEL-5, melanoma; 48 h. How it is done:
as §1
Consider `CC[C@@]1(O)C(=O)OCc2c1cc1n(c2=O)C(NO)c2cc3ccccc3nc2-1` (stereo partly shown) [Example 1, 5-Hydroxylaminocamptothecin], for which the GI50 was 3.38 µM.

Regarding `CC[C@@]1(O)C(=O)OCc2c1cc1n(c2=O)C(NO)c2cc3cc(O)ccc3nc2-1` (stereo partly shown) [Example 11, 10-Hydroxy-5-hydroxylaminocamptothecin], the GI50 turned out to be 15 µM.

The test system of another assay is MCF7/ADR. The experiment in a line: NCI in vitro growth inhibition, breast MCF7/ADR. The class given is cell-based. Particulars: Homo sapiens, NCI/ADR-RES, read-out: 50% Growth Inhibition (GI 50), 48 h. On the procedure:
as §1
On to `CC[C@@]1(O)C(=O)OCc2c1cc1n(c2=O)C(NO)c2cc3ccccc3nc2-1` (stereo partly shown) [Example 1, 5-Hydroxylaminocamptothecin], for which the GI50 is 2.18 µM.

Consider `CC[C@@]1(O)C(=O)OCc2c1cc1n(c2=O)C(NO)c2cc3cc(O)ccc3nc2-1` (stereo partly shown) [Example 11, 10-Hydroxy-5-hydroxylaminocamptothecin], for which the GI50 is greater than 30 µM.

The subject of another assay is H 522. In words: NCI in vitro growth inhibition, NSLC H 522. The class given is cell-based. Conditions: Homo sapiens, NCI-H522, read-out: 50% Growth Inhibition (GI 50); H 522, NSLC; 48 h. On the procedure:
as §1
With `CC[C@@]1(O)C(=O)OCc2c1cc1n(c2=O)C(NO)c2cc3ccccc3nc2-1` (stereo partly shown) [Example 1, 5-Hydroxylaminocamptothecin], the GI50 turned out to be 0.2 µM.

As to `CC[C@@]1(O)C(=O)OCc2c1cc1n(c2=O)C(NO)c2cc3cc(O)ccc3nc2-1` (stereo partly shown) [Example 11, 10-Hydroxy-5-hydroxylaminocamptothecin], the GI50 was found to be 5.37 µM.

The next assay has as its system H 460. The experiment in a line: NCI in vitro growth inhibition, NSLC H 460. The class given is cell-based. Conditions: Homo sapiens, NCI-H460, read-out: 50% Growth Inhibition (GI 50); H 460, NSLC; 48 h. How it is done: as §1
As for `CC[C@@]1(O)C(=O)OCc2c1cc1n(c2=O)C(NO)c2cc3ccccc3nc2-1` (stereo partly shown) [Example 1, 5-Hydroxylaminocamptothecin], the GI50 was 0.48 µM.

Regarding `CC[C@@]1(O)C(=O)OCc2c1cc1n(c2=O)C(NO)c2cc3cc(O)ccc3nc2-1` (stereo partly shown) [Example 11, 10-Hydroxy-5-hydroxylaminocamptothecin], the GI50 worked out at 1.54 µM.

In another assay the test system is M-14. In words: NCI in vitro growth inhibition, melanoma M-14. The class given is cell-based. Particulars: Homo sapiens, M14, read-out: 50% Growth Inhibition (GI 50); M-14, melanoma; 48 h. On the procedure:
as §1
In the case of `CC[C@@]1(O)C(=O)OCc2c1cc1n(c2=O)C(NO)c2cc3ccccc3nc2-1` (stereo partly shown) [Example 1, 5-Hydroxylaminocamptothecin], the GI50 was 0.37 µM.

As for `CC[C@@]1(O)C(=O)OCc2c1cc1n(c2=O)C(NO)c2cc3cc(O)ccc3nc2-1` (stereo partly shown) [Example 11, 10-Hydroxy-5-hydroxylaminocamptothecin], the GI50 turned out to be 4.26 µM.

The next assay concerns SR. In words: NCI in vitro growth inhibition, leukemia SR. It counts as cell-based. Particulars: Homo sapiens, read-out: 50% Growth Inhibition (GI 50), 48 h. How it is done: as §1
Regarding `CC[C@@]1(O)C(=O)OCc2c1cc1n(c2=O)C(NO)c2cc3ccccc3nc2-1` (stereo partly shown) [Example 1, 5-Hydroxylaminocamptothecin], the GI50 was 0.53 µM.

Turning to `CC[C@@]1(O)C(=O)OCc2c1cc1n(c2=O)C(NO)c2cc3cc(O)ccc3nc2-1` (stereo partly shown) [Example 11, 10-Hydroxy-5-hydroxylaminocamptothecin], the GI50 came out at 0.1 µM.

In the next assay the test system is SF-268. In words: NCI in vitro growth inhibition, CNS SF-268. The class given is cell-based. Conditions: Homo sapiens, SF-268, 48 h, read-out: 50% Growth Inhibition (GI 50). On the procedure: as §1
`CC[C@@]1(O)C(=O)OCc2c1cc1n(c2=O)C(NO)c2cc3cc(O)ccc3nc2-1` (stereo partly shown) [Example 11, 10-Hydroxy-5-hydroxylaminocamptothecin]: the GI50 stood at 2.45 µM.

In a further assay the test system is ACHN. The experiment in a line: NCI in vitro growth inhibition, renal ACHN. It counts as cell-based. Conditions: Homo sapiens, read-out: 50% Growth Inhibition (GI 50), 48 h. On the procedure:
as §1
For `CC[C@@]1(O)C(=O)OCc2c1cc1n(c2=O)C(NO)c2cc3ccccc3nc2-1` (stereo partly shown) [Example 1, 5-Hydroxylaminocamptothecin], the GI50 was 0.4 µM.

For the molecule `CC[C@@]1(O)C(=O)OCc2c1cc1n(c2=O)C(NO)c2cc3cc(O)ccc3nc2-1` (stereo partly shown) [Example 11, 10-Hydroxy-5-hydroxylaminocamptothecin], the GI50 turned out to be 3.16 µM.

The next assay deals with MOLT-4. In words: NCI in vitro growth inhibition, leukemia MOLT-4. The class given is cell-based. Particulars: Homo sapiens, read-out: 50% Growth Inhibition (GI 50); MOLT-4, leukemia; 48 h. How it is done: as §1
Turning to `CC[C@@]1(O)C(=O)OCc2c1cc1n(c2=O)C(NO)c2cc3ccccc3nc2-1` (stereo partly shown) [Example 1, 5-Hydroxylaminocamptothecin], the GI50 was determined as 0.18 µM.

For `CC[C@@]1(O)C(=O)OCc2c1cc1n(c2=O)C(NO)c2cc3cc(O)ccc3nc2-1` (stereo partly shown) [Example 11, 10-Hydroxy-5-hydroxylaminocamptothecin], the GI50 came to 0.01 µM.

The subject of another assay is NCI's 60 human tumor cell line assay. In words: NCI 60 human tumor cell line assay, mean growth inhibition (Table 1). The class given is cell-based. Conditions: read-out: IC50 = the mean value of the minimum drug concentration of the agent required to produce 50% cell growth inhibition (GI50); mean over NCI's 60 human tumor cell lines; 48 h; Sulforhodamine B. On the procedure: as §1
^a IC50 = the mean value of the minimum drug concentration (μm) of
NCI's 60 human tumor cell line assay.
On to `CC[C@@]1(O)C(=O)OCc2c1cc1n(c2=O)C(NO)c2cc3ccccc3nc2-1` (stereo partly shown) [Example 1, 5-Hydroxylaminocamptothecin], for which the IC50 was found to be 2.39 µM.

Consider `CC[C@@]1(O)C(=O)OCc2c1cc1n(c2=O)C(NO)c2cc3cc(O)ccc3nc2-1` (stereo partly shown) [Example 11, 10-Hydroxy-5-hydroxylaminocamptothecin], for which the IC50 turned out to be 10 µM.
